pIC50: −log10 of the molar value.
Columns and labels:
[1] = Mutagenicity in Salmonella typhimurium TA102 at 62.5 to 625 uM preincubated for 1 hr with S9 mix followed by addition of molten top agar and measured 48 hrs post dark incubation by Ames test; type: toxicity, subcellular; details: salmonella enterica subsp. enterica serovar typhimurium, s9, 48 h
[2] = Toxicity in Swiss mouse assessed as inflammation at injection site 10 mg/kg, ip administered for 5 days measured measured on day 7 to day 30 post last dose by HES staining based microscopic analysis; type: organism-based; details: in vivo, 120 h
[3] = Cytotoxicity against human THP1 cells after 72 hrs by MTT assay; type: cell-based; details: THP-1 cells
[4] = Toxicity in Swiss mouse assessed as effect on heart at 1 mg/kg, ip administered for 5 days measured measured on day 7 to day 30 post last dose by HES staining based microscopic analysis; type: organism-based; details: in vivo, 120 h
[5] = Toxicity in Swiss mouse assessed as effect on liver by measuring inflammatory cell infiltration at 10 mg/kg, ip administered for 5 days measured measured on day 7 to day 30 post last dose by HES staining based microscopic analysis; type: organism-based; details: in vivo, 120 h
Leishmania donovani [6] = assay: Antileishmanial activity against promastigote stage of Leishmania donovani MHOM/IN/00/DEVI after 72 hrs by MTT assay; type: functional, organism-based
Leishmania donovani [7] = assay: Antileishmanial activity against intracellular amastigote stage of Leishmania donovani infected in human THP1 cells after 120 hrs by giemsa staining based microscopic analysis; type: functional, organism-based; details: THP-1, 120 h
Albumin [8] = molecular target: T1, Albumin (Homo sapiens, UniProt P02768); assay: Binding affinity to human serum albumin after 4 hrs by LC-MS analysis; type: ADME; details: read-out: PB (converted)
T1 sequence (P02768 whole entry): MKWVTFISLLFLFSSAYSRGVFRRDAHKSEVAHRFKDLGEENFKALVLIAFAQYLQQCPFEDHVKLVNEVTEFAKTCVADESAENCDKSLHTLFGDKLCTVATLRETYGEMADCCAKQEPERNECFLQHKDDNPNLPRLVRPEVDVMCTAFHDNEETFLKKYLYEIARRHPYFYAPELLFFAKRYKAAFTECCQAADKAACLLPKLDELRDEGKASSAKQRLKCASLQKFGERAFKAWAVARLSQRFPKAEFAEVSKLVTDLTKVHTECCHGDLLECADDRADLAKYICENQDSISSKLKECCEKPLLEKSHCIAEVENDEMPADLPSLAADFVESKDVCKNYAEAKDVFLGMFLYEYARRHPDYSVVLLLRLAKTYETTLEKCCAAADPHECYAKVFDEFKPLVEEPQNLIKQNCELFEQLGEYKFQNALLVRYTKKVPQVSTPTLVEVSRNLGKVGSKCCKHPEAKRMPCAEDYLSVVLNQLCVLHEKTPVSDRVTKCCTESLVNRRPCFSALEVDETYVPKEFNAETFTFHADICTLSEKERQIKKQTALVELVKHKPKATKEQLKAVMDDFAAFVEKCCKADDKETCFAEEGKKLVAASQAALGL

[9] = Toxicity in Swiss mouse assessed as effect on liver at 1 mg/kg, ip administered for 5 days measured measured on day 7 to day 30 post last dose by HES staining based microscopic analysis; type: organism-based; details: in vivo, 120 h
[10] = Toxicity in Swiss mouse assessed as effect on lungs at 1 mg/kg, ip administered for 5 days measured measured on day 7 to day 30 post last dose by HES staining based microscopic analysis; type: organism-based; details: in vivo, 120 h
[11] = Mutagenicity in Salmonella typhimurium TA98 at 62.5 to 625 uM preincubated for 1 hr with S9 mix followed by addition of molten top agar and measured 48 hrs post dark incubation by Ames test; type: toxicity, subcellular; details: salmonella enterica subsp. enterica serovar typhimurium, s9, 48 h
Leishmania donovani [12] = assay: Selectivity ratio of IC50 for wild type promastigote stage of Leishmania donovani MHOM/SD/62/1S-CL2D to IC50 for NTR1 in promastigote stage of Leishmania donovani MHOM/SD/62/1S-CL2D
[13] = Toxicity in Swiss mouse assessed as effect on brain at 1 mg/kg, ip administered for 5 days measured measured on day 7 to day 30 post last dose by HES staining based microscopic analysis; type: organism-based; details: in vivo, 120 h
[14] = Mutagenicity in Salmonella typhimurium TA97a at 62.5 to 625 uM preincubated for 1 hr with S9 mix followed by addition of molten top agar and measured 48 hrs post dark incubation by Ames test; type: toxicity, subcellular; details: salmonella enterica subsp. enterica serovar typhimurium, s9, 48 h
Leishmania major [15] = assay: Antileishmanial activity against promastigote stage of Leishmania major MHOM/IL/81/Friedlin after 72 hrs by MTT assay; type: functional, organism-based
[16] = Cytotoxicity against human HepG2 cells after 72 hrs by MTT assay; type: cell-based
[17] = system: Trypanosoma brucei brucei; assay: Antitrypanosomal activity against trypomastigote stage of Trypanosoma brucei brucei AnTat 1.9 assessed as decrease in parasite viability after 69 hrs by Alamar Blue assay; type: functional, organism-based; details: AnTat 1.9, 69 h
[18] = Toxicity in Swiss mouse assessed as effect on adipose tissue at 1 mg/kg, ip administered for 5 days measured measured on day 7 to day 30 post last dose by HES staining based microscopic analysis; type: organism-based; details: in vivo, 120 h
[19] = Mutagenicity in Salmonella typhimurium TA97a at 62.5 to 625 uM preincubated for 1 hr followed by addition of molten top agar and measured 48 hrs post dark incubation by Ames test; type: toxicity; details: salmonella enterica subsp. enterica serovar typhimurium
Leishmania donovani [20] = assay: Selectivity ratio of IC50 for NTR2 in promastigote stage of Leishmania donovani MHOM/SD/62/1S-CL2D to IC50 for NTR1 in promastigote stage of Leishmania donovani MHOM/SD/62/1S-CL2D
HepG2 = assay: Genotoxicity in human HepG2 cells at 1 to 20 uM after 2 to 72 hrs by comet assay; type: toxicity, cell-based; details: hepg2, 20 µM
[21] = Selectivity index, ratio of CC50 for human HepG2 cells to IC50 for promastigote stage of Leishmania donovani MHOM/IN/00/DEVI; type: toxicity; details: read-out: Ratio CC50/IC50
[22] = Toxicity in Swiss mouse assessed as fibrosis at injection site 10 mg/kg, ip administered for 5 days measured measured on day 7 to day 30 post last dose by HES staining based microscopic analysis; type: organism-based; details: in vivo, 120 h
Albumin [23] = molecular target: T1, Albumin; assay: Binding affinity to human serum albumin assessed as unbound fraction after 4 hrs by LC-MS analysis; type: ADME; details: isolated protein
[24] = Toxicity in Swiss mouse assessed as effect on muscles at 1 mg/kg, ip administered for 5 days measured measured on day 7 to day 30 post last dose by HES staining based microscopic analysis; type: organism-based; details: in vivo, 120 h
[25] = Substrate activity at NTR1 in promastigote stage of Leishmania donovani MHOM/SD/62/1S-CL2D assessed as inhibition of parasite growth after 72 hrs by resazurin dye based assay
Leishmania donovani [26] = assay: Potency index, ratio of miltefosine IC50 to test compound IC50 for intracellular amastigote stage of Leishmania donovani infected in human THP1 cells; type: functional
[27] = Mutagenicity in Salmonella typhimurium TA98 at 62.5 to 625 uM preincubated for 1 hr followed by addition of molten top agar and measured 48 hrs post dark incubation by Ames test; type: toxicity; details: salmonella enterica subsp. enterica serovar typhimurium
Plasmodium falciparum = assay: Antiplasmodial activity against chloroquine/proguanil/pyrimethamine-resistant synchronized stage of Plasmodium falciparum K1 after 72 hrs by SYBR green1 staining based spectrophotometric method; type: functional, organism-based; details: K1, 72 h
[28] = Mutagenicity in Salmonella typhimurium TA100 at 62.5 to 625 uM preincubated for 1 hr with S9 mix followed by addition of molten top agar and measured 48 hrs post dark incubation by Ames test; type: toxicity, subcellular; details: salmonella enterica subsp. enterica serovar typhimurium, s9, 48 h
[29] = Mutagenicity in Salmonella typhimurium TA102 at 62.5 to 625 uM preincubated for 1 hr followed by addition of molten top agar and measured 48 hrs post dark incubation by Ames test; type: toxicity; details: salmonella enterica subsp. enterica serovar typhimurium
[30] = Acute toxicity in Swiss mouse at 1 to 10 mg/kg, ip measured for 24 hrs; type: organism-based; details: in vivo
[31] = Toxicity in Swiss mouse assessed as effect on skin by measuring hypodermic lymph node at 10 mg/kg, ip administered for 5 days measured measured on day 7 to day 30 post last dose by HES staining based microscopic analysis; type: organism-based; details: in vivo, 120 h
Leishmania donovani [32] = assay: Antileishmanial activity against wild type promastigote stage of Leishmania donovani MHOM/SD/62/1S-CL2D after 72 hrs by resazurin dye based fluorescence assay; type: functional, organism-based
[33] = Toxicity in Swiss mouse assessed as effect on spleen at 1 mg/kg, ip administered for 5 days measured measured on day 7 to day 30 post last dose by HES staining based microscopic analysis; type: organism-based; details: in vivo, 120 h
[34] = Half life in CD-1 mouse hepatic microsomes in presence of NADPH by LC-MS/MS analysis; type: ADME, Microsome; details: liver microsomes
[35] = Mutagenicity in Salmonella typhimurium TA100 at 62.5 to 625 uM preincubated for 1 hr followed by addition of molten top agar and measured 48 hrs post dark incubation by Ames test; type: toxicity; details: salmonella enterica subsp. enterica serovar typhimurium
Trichomonas vaginalis = assay: Antiprotozoal activity against Trichomonas vaginalis TVR87 measured after 48 hrs by trypan blue assay; type: functional, organism-based
[36] = Substrate activity at NTR2 in promastigote stage of Leishmania donovani MHOM/SD/62/1S-CL2D assessed as inhibition of parasite growth after 72 hrs by resazurin dye based assay
Leishmania infantum [37] = assay: Potency index, ratio of fexinidazole IC50 to test compound IC50 for Leishmania infantum axenic amastigotes; type: functional
Trypanosoma cruzi = assay: Antitrypanosomal activity against Trypanosoma cruzi MHOM/BR/78/Silvio cloneX10/7A epimastigotes measured after 4 days by resazurin dye based fluorescence assay; type: functional, organism-based; details: 96 h
[38] = Solubility of the compound in RPMI medium at 4 to 6 uM; type: physicochemical
Leishmania infantum [39] = assay: Antileishmanial activity against Leishmania infantum axenic amastigotes after 48 hrs by steady-glo luciferase reporter gene assay; type: functional, organism-based
[40] = Solubility of the compound in RPMI medium at >62.5 uM; type: physicochemical
Leishmania major [41] = assay: Antileishmanial activity against intracellular amastigote stage of Leishmania major infected in human THP1 cells after 120 hrs by giemsa staining based microscopic analysis; type: functional, organism-based; details: THP-1, 120 h
[42] = Lipophilicity, log D of the compound at pH 7.4 by HPLC analysis; type: physicochemical; details: buffer
[43] = Toxicity in Swiss mouse assessed as effect on kidney at 1 mg/kg, ip administered for 5 days measured measured on day 7 to day 30 post last dose by HES staining based microscopic analysis; type: organism-based; details: in vivo, 120 h
[44] = Electrochemical behavior of the compound assessed as redox potential corrected toward normal hydrogen electrode by cyclic voltammetry
[45] = Drug metabolism in CD-1 mouse hepatic microsomes assessed as 6-chloro-8-(4-chlorophenylsulfinyl)-3-nitro-2-(phenylsulfonylmethyl)imidazo[1,2-a]pyridine formation in presence of NADPH by LC-MS/MS analysis; type: ADME, Liver, Microsome
[46] = Solubility of the compound in RPMI medium at >40 uM; type: physicochemical
[47] = Aqueous solubility of the compound at >62.5 uM; type: physicochemical; details: buffer
[48] = Aqueous solubility of the compound at >12.5 uM; type: physicochemical; details: buffer

O=[N+]([O-])c1c(CS(=O)(=O)c2ccccc2)nc2c(Sc3ccc(Cl)cc3)cc(Cl)cn12
Activity [1]: Non-Toxic
Activity [2]: Non-Toxic
CC50 at 72 h [3]: > 62500 nM
Activity [4]: Non-Toxic
Activity [5]: Non-Toxic
pIC50 (Leishmania donovani [6]): 6.00
pIC50 (Leishmania donovani [7]): 5.89 to 6.00
fraction unbound at 4 h (Albumin [8]): 0.0005
Activity [9]: Non-Toxic
Activity [10]: Non-Toxic
Activity [11]: Non-Toxic
Ratio IC50 (Leishmania donovani [12]): 8
Activity [13]: Non-Toxic
Activity [14]: Non-Toxic
pIC50 (Leishmania major [15]): 5.89
CC50 at 72 h [16]: > 100000 nM
pIC50 [17]: 5.89
Activity [18]: Non-Toxic
Activity [19]: Non-Toxic
Ratio IC50 (Leishmania donovani [20]): 8
Activity (HepG2): Non-Toxic
selectivity ratio [21]: > 100
Activity [22]: Non-Toxic
logFu (Albumin [23]): -3.28
Activity [24]: Non-Toxic
pIC50 [25]: 7.48
Ratio IC50 (Leishmania donovani [26]): 3
Activity [27]: Non-Toxic
pIC50 (Plasmodium falciparum): 4.72
Activity [28]: Non-Toxic
Activity [29]: Non-Toxic
Activity [30]: Non-Toxic
Activity [31]: Non-Toxic
pIC50 (Leishmania donovani [32]): 6.59
Activity [33]: Non-Toxic
half-life [34]: 3 min
Activity [35]: Non-Toxic
pIC50 (Trichomonas vaginalis): 5.30 to 5.34
pIC50 [36]: 6.52
Ratio IC50 (Leishmania infantum [37]): 2
pIC50 (Trypanosoma cruzi): 5.66
solubility [38]: Soluble
pIC50 (Leishmania infantum [39]): 5.77
solubility [40]: Insoluble
pIC50 (Leishmania major [41]): 5.68
logD [42]: 4.26
Activity [43]: Non-Toxic
Activity [44]: -0.63 V
Drug metabolism [45]: Metabolite_Detected

CCCCCCCCCCCCCCCCOP(=O)([O-])OCC[N+](C)(C)C [MILTEFOSINE]
CC50 at 72 h [3]: > 40000 nM
solubility [46]: Insoluble

Nc1c(CS(=O)(=O)c2ccccc2)nc2c(Sc3ccc(Cl)cc3)cc(Cl)cn12
pIC50 (Leishmania donovani [7]): 3.91
CC50 at 72 h [16]: > 62500 nM
pIC50 [17]: 4.97
solubility [47]: Insoluble
pIC50 (Leishmania infantum [39]): 4.50

O=[N+]([O-])c1c(CS(=O)(=O)c2ccccc2)nc2c(S(=O)(=O)c3ccc(Cl)cc3)cc(Cl)cn12
solubility [48]: Insoluble
pIC50 (Leishmania donovani [7]): 5.89
Ratio IC50 (Leishmania donovani [12]): 8
CC50 at 72 h [16]: > 12500 nM
pIC50 [17]: 6.00
Ratio IC50 (Leishmania donovani [20]): 8
pIC50 [25]: 7.10
pIC50 (Leishmania donovani [32]): 6.22
pIC50 [36]: 6.15
pIC50 (Leishmania infantum [39]): 5.43
Activity [44]: -0.59 V
